System: Hep-3B cells
Assay: Cellular assay: erythropoietin (EPO) secretion in Hep-3B cells
Assay type: cell-based, human
Details: 24 h incubation, compound at 100 μM, percentage of EPO secretion of control compound 7-[(4-Chloro-phenyl)-(5-methyl-isoxazol-3-ylamino)-methyl]-quinolin-8-ol

SMILES | Cellular % EPO Stimulation
O=C(O)c1cnn(-c2nc3cc(-c4cccc(OCc5ccccc5Cl)c4)ccc3[nH]2)c1 [Example 13, 1-{5-[3-(2-Chloro-benzyloxy)-phenyl]-1H-benzoimidazol-2-yl}-1H-pyrazole-4-carboxylic acid] | 18%
Cc1nn(-c2nc3cc(Cl)c(Cl)cc3[nH]2)c(C)c1C(=O)O [Example 22, 1-(5,6-Dichloro-1H-benzoimidazol-2-yl)-3,5-dimethyl-1H-pyrazole-4-carboxylic acid] | 0.47%
O=C(O)c1cnn(-c2nc3cc(-c4cccc(C(F)(F)F)c4)ccc3[nH]2)c1 [Example 17, 1-[5-(3-Trifluoromethyl-phenyl)-1H-benzoimidazol-2-yl]-1H-pyrazole-4-carboxylic acid] | 5.8%
O=C(O)c1cnn(-c2nc3ccccc3[nH]2)c1 [Example 1, 1-(1H-Benzoimidazol-2-yl)-1H-pyrazole-4-carboxylic acid] | 7.1%
Cc1cc2nc(-n3cc(C(=O)O)cn3)[nH]c2cc1C [Example 5, 1-(5,6-Dimethyl-1H-benzoimidazol-2-yl)-1H-pyrazole-4-carboxylic acid] | 2.1%

Reference: patent publication US11618744B2, “Benzoimidazoles as prolyl hydroxylase inhibitors” (Janssen Pharmaceutica NV, priority 2008, dated 2023)
